{"source": "patent US8877244B2", "about": "“Stabilized pesticidal granules” (priority 2006, dated 2014)", "key": {"[1]": {"assay": "Stability comparison: accelerated temperature storage of coated granules, a.i. extracted and assayed by HPLC", "format": "physicochemical", "settings": "storage at 38° C. and 50° C.", "protocol": "The materials prepared in examples 1-7 are tested for stability as follows: • 1) After obtaining the coated granules according to the procedures given above, material is divided up into samples by using a standard “Riffler”, which is used to generate statistically representative samples from a large batch. • 2) The individual “riffled” samples are put on accelerated temperature storage (in ovens) at 38° C. and 50° C. • 3) Samples are pulled from each temperature at regular intervals, and assayed for 2-(2′-nitro-4′-methylsulphonylbenzoyl)-1,3-cyclohexanedione acid concentration (weight %). Commonly 2-3 samples are pulled from each temperature, each week. • 4) The pulled samples are analyzed for stability by extraction of the a.i. material from the granules and assayed by HPLC."}, "[2]": {"system": "large crabgrass (Digitaria sanguinalis)", "assay": "Biology comparison: control of large crabgrass by stored granule samples", "format": "in vivo", "settings": "after storage for 1 year at room temperature or 19 days at 50° C.", "description": "Callisto® (a commercially available liquid formulation containing 4 lbs/gal of the active ingredient 2-(2′-nitro-4′-methylsulphonylbenzoyl)-1,3-cyclohexanedione acid) (Syngenta Crop Protection, Inc.) is sprayed onto fertilizer granules (Scotts® Turf Builder® Lawn Fertilizer 29-3-4 (with added nutrients)) (The Scotts Co.) in an amount sufficient to achieve an average a.i. loading of 0.082% by weight. Sample 2 is a control sample that is freshly prepared and has not been stored. Sample 3 is stored for 1 year at ambient room temperature. Sample 4 is stored under accelerated conditions (19 days at 50° C.).\nA spray solution of Example 1 is sprayed onto fertilizer granules (Scotts® Turf Builder® Lawn Fertilizer 29-3-4 (with added nutrients)) (The Scotts Co.) in an amount sufficient to achieve an average a.i. loading of 0.082% by weight. Sample 5 is stored for 1 year at ambient room temperature. Sample 6 is stored under accelerated conditions (19 days at 50° C.).\nAll samples are applied to large crabgrass (Digitaria sanguinalis) at 224 g ai/ha, and control assessed 10 days after treatment. Sample 1 is an untreated control."}}, "data": [{"substance": "2-(2′-nitro-4′-methylsulphonylbenzoyl)-1,3-cyclohexanedione copper chelate", "values": [{"measurement": "stability on granules compared with the unchelated (acid) form", "setting": "[1]", "result": "improved stability"}, {"measurement": "control of large crabgrass compared with the unchelated (acid) form on fertiliser granules", "setting": "[2]", "result": "improved control of large crabgrass"}]}]}
